Data from publication PMC12040169 (PLOS Biology, 2025).

Assay: in vitro
Settings: human, hela cells, % viability

Structure (SMILES) | viability at 28.5 h, 10 µM [%] | viability at 28.5 h, 10 µM (bulk resorufin, single well) [%]
COCCCOc1cncc(NC(C)C)n1 [CBK115880] | 89 | 
CC(C)Nc1cncc(OCCCc2ccncc2)n1 [CBK115881] | 90.6 | 
CC(C)Nc1cncc(OC2CCOC2)n1 (centres unmarked) [CBK115882] | 102 | 
CC(C)Nc1cc(OCCCc2ccncc2)ncn1 [CBK115886] | 104 | 
Cc1cc(COc2cc(NC(C)C)ncn2)no1 [CBK115887] | 92.7 | 
CSCCOc1cc(NC(C)C)ncn1 [CBK115889] | 86.9 | 
c1cncc(COc2nccnc2N2CCCC2)c1 [CBK115890] | 101 | 
c1cncc(COc2cncc(N3CCCC3)n2)c1 [CBK115892] | 88.4 | 
c1cncc(COc2cc(N3CCCC3)ncn2)c1 [CBK115894] | 96.9 | 
Cc1ncsc1CCOc1cc(N2CCCC2)ncn1 [CBK115895] | 85.5 | 
c1cc(CCCOc2cc(N3CCCC3)ncn2)ccn1 [CBK115897] | 84.4 | 
Cc1cc(COc2cc(N3CCCC3)ncn2)no1 [CBK115898] | 93.1 | 
c1nc(OC2CCOC2)cc(N2CCCC2)n1 (centres unmarked) [CBK115899] | 88.4 | 
FC(F)(F)c1ccnc(OCc2cccnc2)n1 [CBK115902] | 102 | 
COc1ccc(CC(=O)Nc2cccc(-c3ccc4c(c3)COC3(CCNCC3)O4)c2)cc1F [CBK115913] |  | 86.5
O=C(NCC1CCCN1)c1ccccc1Nc1cccc(C(F)(F)F)c1 (centres unmarked) [CBK115916C] | 107 | 
CN(C)CCN(C)C(=O)c1cc(-c2ccc(Cl)cc2)[nH]n1 [CBK115928] | 94.9 | 
COc1cc(NC(=O)Nc2ccc3ccc(Cl)nc3n2)cc(OC)c1OC [CBK115933] | 82.9 | 
CC(C)Nc1nc2ccccc2nc1Sc1cccc(C(=O)O)c1 [CBK115955T] | 104 | 
COc1ccc(C2N(CCC(=O)O)CCOC23CCN(C(=O)c2ccc4ccccc4c2)CC3)cc1 (centres unmarked) [CBK115960] | 102 | 
O=c1[nH]c(SCc2c(Cl)cccc2Cl)nc2ccnn12 [CBK116145] | 92.8 | 
O=S(=O)(c1cccc(C(F)(F)F)c1)n1ccc2c(CN3CCC[C@@H]3CO)cccc21 [CBK116167T] | 96.8 | 
O=S(=O)(c1cccc(C(F)(F)F)c1)n1ccc2c(CN3CCCC3)cccc21 [CBK116168T] | 111 | 

Structure (SMILES) | viability at 28.5 h, 10 µM [%] | viability at 28.5 h, 10 µM (bulk resorufin, single well) [%]
Cc1[nH]c(=O)[nH]c(=O)c1C(=O)Nc1ccccc1 [CBK116181] | 96.4 | 
O=S(=O)(c1cccs1)n1ccc2c(CN3CCCC3)cccc21 [CBK116195T] | 89.3 | 
CCCN1CCN(Cc2cccc3c2ccn3S(=O)(=O)c2cccs2)CC1 [CBK116196T] | 92 | 
COc1ccc2[nH]cc(CCNC(=O)CCCN(C)C)c2c1 [CBK116202] | 96.4 | 
COc1ccc2[nH]cc(CCNC(=O)c3ccco3)c2c1 [CBK116204] | 96.5 | 
COc1ccc2[nH]cc(CCNC(=O)Cc3ccsc3)c2c1 [CBK116205] | 91.3 | 
COc1ccc2[nH]cc(CCNC(=O)C3CC(=O)c4ccccc43)c2c1 (centres unmarked) [CBK116221] | 97.3 | 
COc1ccc2[nH]cc(CCNC(=O)COc3ccc(O)cc3)c2c1 [CBK116227] | 82 | 
COCCN1CCOC2(CCN(C(=O)c3ccc4ccccc4c3)CC2)C1c1ccccc1O (centres unmarked) [CBK116232] | 107 | 
Cc1cc(Br)ccc1-n1sc2ccccc2c1=O [CBK116239] | 87 | 
Cc1cc(NC(=O)c2ccco2)c2ccccc2n1 [CBK116258] | 106 | 
Cc1cc(NC(=O)c2cccc(C(F)(F)F)c2)c2ccccc2n1 [CBK116263] | 90 | 
CC(=O)N[C@@H](CC(C)C)C(=O)Nc1cc(C)nc2ccccc12 [CBK116265] | 94.3 | 
Cc1cc(NC(=O)Cc2ccc(Cl)c(Cl)c2)c2ccccc2n1 [CBK116266] | 99.3 | 
Cc1cc(NC(=O)c2cccc(C#N)c2)c2ccccc2n1 [CBK116267] | 101 | 
Cc1cc(NC(=O)c2ccc3[nH]ccc3c2)c2ccccc2n1 [CBK116270] | 104 | 
Cc1cc(NC(=O)c2cscn2)c2ccccc2n1 [CBK116275] | 85.6 | 
CCOc1ccccc1NC(=O)NC1CC2CCC(C1)N2Cc1ccccc1 (centres unmarked) [CBK116294] | 86.2 | 
NC(=O)CN1CC2(CCN(C(=O)OCc3ccccc3)CC2)c2ccccc21 [CBK116309] | 94.4 | 
COc1cc(-c2ccc3c(c2)COC2(CCN(C(=O)OC(C)(C)C)CC2)O3)ccc1O [CBK116310] |  | 116
CC1(OCCN2CCOCC2)SC(NC2CC3CCC2C3)=NC1=O (centres unmarked) [CBK116313] | 83.8 | 
NC(=O)CN1CC2(CCNCC2)c2ccccc21 [CBK116314] | 117 | 
N#Cc1cccc(-c2ccc3c(c2)COC2(CCN(C(=O)Cc4c[nH]c5ccccc45)CC2)O3)c1 [CBK116346] |  | 99.1

Structure (SMILES) | viability at 28.5 h, 10 µM [%] | viability at 28.5 h, 10 µM (bulk resorufin, single well) [%]
O=C1CCC(C(=O)O)(c2ccccc2)N1c1ccccc1 (centres unmarked) [CBK116358] | 94.8 | 
Cc1ccccc1NC(=O)c1ccccc1Cl [CBK116485] | 104 | 
Cc1ccnc(-n2sc3ccccc3c2=O)n1 [CBK116499] | 97.1 | 
COC(=O)c1ccc(CSc2nnc(-n3sc4ccccc4c3=O)s2)cc1 [CBK116502] | 90.6 | 
O=C(O)c1ccccc1NS(=O)(=O)c1cccc(-n2sc3ccccc3c2=O)c1 [CBK116503] | 94.7 | 
CN(C)CC(=O)NCc1ccc(-c2nc(-c3ccc(C#N)cc3)cnc2N)cc1 [CBK116506] | 92 | 
COc1ccc(-c2nc(-c3ccc(C(=O)N4CCOCC4)cc3)cnc2N)cc1 [CBK116509] | 108 | 
O=C(c1cc(-c2ccc(Cl)cc2)[nH]n1)N1CCNCC1 [CBK116548] | 99.5 | 
O=C(NCc1ccccn1)c1cc(-c2ccc(Cl)cc2)[nH]n1 [CBK116549] | 99.5 | 
CN1CCN(NC(=O)c2cc(-c3ccc(Cl)cc3)[nH]n2)CC1 [CBK116553] | 90.8 | 
O=C(NCc1ccccn1)c1cc(-c2ccc(Cl)cc2)on1 [CBK116558] | 83.8 | 
O=C(NCc1ccncc1)c1cc(-c2ccc(Cl)cc2)on1 [CBK116559] | 85.7 | 
CN(C)CC(C)(C)CNC(=O)c1cc(-c2ccc(Cl)cc2)on1 [CBK116561] | 101 | 
CN(C)CCCNC(=O)c1cc(-c2ccc(Cl)cc2)[nH]n1 [CBK116564T] | 98.5 | 
FC(F)(F)c1ccnc(OCc2ccc(Cl)c(Cl)c2)c1 [CBK116623] | 89.2 | 
FC(F)(F)c1ccnc(OCCc2c[nH]c3ccccc23)n1 [CBK116625] | 80.2 | 
CN(C)CCNC(=O)c1cc(-c2ccc(Cl)cc2)on1 [CBK116711T] | 89.7 | 
COc1cc2cc3c(N)c(C(=O)N4CCCc5ccccc54)sc3nc2cc1OC [CBK117298] | 102 | 
O=C(Nc1ccccc1Cl)N1CCN(c2ccc(F)cc2)CC1 [CBK117849] | 95.7 | 
COc1c(Br)cc(Br)cc1/C=C1/SC(=N)NC1=O [CBK119298] | 94.4 | 
O=C(Nc1c(F)cccc1F)N(Cc1ccc2ccccc2c1)CC1CCNCC1 [CBK119480] | 100 | 
COc1cc2cc3c(N)c(C(=O)NCc4cccs4)sc3nc2cc1OC [CBK120215] | 92 | 
Fc1ccc(CN2C3CCCC2CC(NC(=S)NC2CCCCC2)C3)cc1 (centres unmarked) [CBK121172] | 90 | 

Structure (SMILES) | viability at 28.5 h, 10 µM [%] | viability at 28.5 h, 10 µM (bulk resorufin, single well) [%]
Cc1cccc(C)c1NC(=O)Cn1nnc(-c2ccc(CN3CCC(C)CC3)cc2)n1 [CBK121194] | 87.2 | 
CCOc1ccc(C(=O)NC2CC3CCC(C2)N3Cc2ccc(OC)cc2)cc1 (centres unmarked) [CBK121398] | 109 | 
O=C(c1ccc(F)cc1)N1C2CCC1CC(O)(c1ccccc1F)C2 (centres unmarked) [CBK121719] | 102 | 
CC(=O)Nc1ccc(-c2ccc3c(c2)COC2(CCN(C(=O)Cc4ccc(F)cc4F)CC2)O3)cc1 [CBK122474] |  | 102
CCCCC1CCC(C(=O)O)CC1 (centres unmarked) [CBK122493] | 82.4 | 
Nc1ncc(-c2ccc(OC(F)(F)F)cc2)nc1-c1ccc(O)cc1 [CBK122506] | 95.8 | 
Cc1ccc(S(=O)(=O)N2CCOCC2)cc1-c1cnc(N)c(-c2ccc(O)cc2)n1 [CBK122519] | 98.7 | 
CCCCSc1sc(C(=O)O)c(-c2ccc(Cl)cc2)c1C#N [CBK122551] | 94.1 | 
CC(C)(C)OC(=O)N1CCC(Sc2ccc(-c3ccco3)cc2)CC1 [CBK122552] | 85.6 | 
COc1cc(Nc2cncc(-c3ccc(O)cc3)n2)c(Cl)cc1C(=O)NCCCN(C)C [CBK122651] | 81.1 | 
CCN(CC)CCNC(=O)c1ccc(Nc2cncc(-c3ccc(O)cc3)n2)c(OC)c1 [CBK122659] | 82.2 | 
COc1cc(C(=O)NCCN2CCCC2)ccc1Nc1cncc(-c2ccc(O)cc2)n1 [CBK122661] | 96 | 
O=C(NCCN1CCCC1)c1ccc(Nc2cncc(-c3ccc(O)cc3)n2)c(Cl)c1 [CBK122666] | 85.4 | 
CN(C)CCCNC(=O)c1cccc(Nc2cncc(-c3ccc(O)cc3)n2)c1 [CBK122669] | 87.7 | 
CCC1(CC)OC(N[C@@H](C)c2ccccc2C(F)(F)F)=NC1=O [CBK122691] | 91.2 | 
CCN1CC2(CCN(CCOc3ccccc3)CC2)c2ccccc21 [CBK122705] | 100 | 
COc1ccc2[nH]cc(CCNC(=O)c3cncnc3)c2c1 [CBK122720] | 87.1 | 
COc1ccc2[nH]cc(CC(=O)Nc3cc(C)nc4ccccc34)c2c1 [CBK122732] | 88.8 | 
Cc1cc(NC(=O)c2cncnc2)c2ccccc2n1 [CBK122734] | 103 | 
O=C(Nc1ccc2cccc(O)c2n1)c1cc[nH]c1 [CBK122743] | 94.9 | 
O=C1CN(c2cccc(C(F)(F)F)c2)C(=O)N1c1ccc(Cl)cc1 [CBK122769] | 108 | 
O=c1[nH]n(-c2ccccc2)c(=O)n1Cc1ccccc1F [CBK122770] | 95 | 
COc1cccc(Cn2c(=O)[nH]n(-c3ccccc3)c2=O)c1 [CBK122771] | 97.7 | 
